Assay results: US20250134800A1, “Biomass Extract For Skin Applications” (EMBION TECHNOLOGIES SA, priority 2022, published 2025)

How the values were obtained:
[1] = test system: Staphylococcus epidermidis ATCC 12228; experiment: Microdilution assay in liquid broth, viable count on agar plates; type: cell-based; conditions: positive controls at 4%, up to 24 h
Method: (§1) A microbiological screening study on liquid broth was performed to assess the activity (bacterial growth) of 5 preparations (P1, P2, P3, P4 and P5) on two Staphylococcus species: (1) Staphylococcus aureus (MRSA) ATCC 33591 as potential skin pathogen and (2) Staphylococcus epidermidis ATCC 12228 as commensal strain in healthy skin. With the aim to assess a potential and strain specific antimicrobial or prebiotic activity vs Staphylococcus spp and to validate the hypothesis that the ingredients may have a prebiotic effect (on S. epidermidis) and meanwhile negatively impacting the viability or growth rate (on S. aureus), the experimental results are presented below.
(§2) To assess a potential and strain specific antimicrobial or prebiotic activity vs Staphylococcus spp.: a microdilution assay (viable count on agar plates) in liquid broth was performed using 3 different concentrations, 4%-2%-1% for each ingredient, compared to inulin and glucose as carbon source and prebiotic reference. […]
(§3) The growth rate checked by viable count (CFU/mL) was performed to quantify the number of residual viable cells present in the test cultures and they were then expressed as Log values.

[2] = test system: Staphylococcus aureus (MRSA) ATCC 33591; experiment: as above; type: cell-based; conditions: positive controls at 4%, up to 24 h
Method: as §1, §2, §3

S. aureus = experiment: Inhibitory study on colonized Reconstructed Human Epidermis (RHE), viable count; type: cell-based, Staphylococcus aureus
Description: The principal aim of the present study was to evaluate the potential efficacy of BSG-derived preparations on a more biologically relevant in vitro preclinical model based on colonized Reconstructed Human Epidermis (RHE). The main focus was given to: • I. to counteract Staphylococcus aureus adhesion and its proliferative capacity. The rationale was based on the possibility of the ingredients to balance the inflammatory reaction induced by the bacterium, reducing its adhesion and growth on RHE model (inhibitory study); • II. the prebiotic effect of the 3 preparations versus Staphylococcus epidermidis (prebiotic study). The rationale was based on the possibility of the ingredients to protect and biostimulant the normal skin microbiota; • III. their biological impact on sterile RHE model. The rationale was based on the possibility that the ingredients to enhance or balance the innate immune response.
For this study the following BSG-derived preparations were used: • for inhibitory and ingredient impact effects: P1 at 1%, P3 at 2% and P4 at 4%; • for prebiotic effect: […] at 1%, P3 at 2% and P5 at 1%.
SkinEthic^@ Reconstituted Human Epidermis 0.5 cm^2 is a reconstructed epidermis of normal human keratinocytes. Cells are grown on inert polycarbonate filters in chemically defined medium, for 17 days. The model reproduces epidermal morphology and it has been fully characterized. The good barrier function, batch reproducibility and low variability in terms of permeability for probe molecules have been described in Literature compared to human ex-vivo models. The RHE batch was tested for the absence of HIV1 and 2 antibodies, hepatitis C antibodies and hepatitis B antigen HBs. On cells from the donors, was verified the absence of bacteria, fungus and mycoplasma. The maintenance medium was tested for sterility.
Two days before the test, bacterial strains (S. aureus and S. epidermidis) were daily inoculated onto culture medium (BHI agar plate) and incubated at 37° C. in aerobic conditions for at least 24 h in order to obtain a fresh culture. The day of the colonization, bacterial strains have been resuspended in sterile saline solution at the required concentration range. Each starting bacterial inoculum concentration was checked by spectrophotometric OD measure and adjusted to obtain a range of about 10^7-10^8 UFC/mL (OD=0.1); it was then diluted 10-fold to obtain a final range concentration of 10^3-10^4 UFC/tissue for the inhibitory study and 10^4-10^5 UFC/tissue for prebiotic study. The starting inoculum level was also confirmed by serial decimal dilutions and viable counts on agar plates (BHI).
For both inhibitory and prebiotic RHE were pre-treated twice (overnight and 1 h before colonization respectively with 50 uL and 30 uL) on the apical part (directly spread on tissue surface) and left incubated at 37° C. (with CO2 5%) up to the colonization. Pre-treated RHE dedicated to inhibitory and prebiotic studies were colonized with 30 μL of the bacterial suspension previously obtained (respectively with S. aureus for inhibitory study and S. epidermidis for prebiotic study) and incubated at 37° C. (with CO2 5%) up to the required time point (24 h). RHE sterile were not colonized pre-treated twice (overnight and 1 h before colonization respectively with 50 uL and 30 uL) on the apical part (directly spread on tissue surface) and left incubated at 37° C. (with CO2 5%) up to the required time point (24 h). […]

[3] = RHE model after 2 days, vs colonized control, P1 1%, P3 2%, P4 4%, Chlorexidine 1%
[4] = RHE model after 2 days, P1 1%, P3 2%, P4 4%, Chlorexidine 1%

Molecule | growth compared with inoculum count [1] | growth compared with inoculum count [2] | bacterial growth on RHE compared to the colonized control (S. aureus; P3 at 2%, P4 at 4%, REF Chlorexidine 1%) | Apical fraction Log reductions (S. aureus; [3]) | Homogenate fraction Log reductions (S. aureus; [3]) | Apical fraction Log (Mean) viable count (S. aureus; [4]) | Homogenate fraction Log (Mean) viable count (S. aureus; [4])
Inulin | growth similar to the inoculum count | growth similar to the inoculum count | – | – | – | – | –
N=C(NCCCCCCNC(=N)NC(=N)Nc1ccc(Cl)cc1)NC(=N)Nc1ccc(Cl)cc1 [REF, Chlorexidine] | – | – | no bacterial growth | >3.26 Log | >3.00 Log | <2.00 Log | <2.00 Log
